These results are taken from patent US5470833A, “Endothelin antagonistic peptide derivatives” (Banyu Pharmaceutical Co., Ltd., priority 1990, dated 1995).

The term inhibition denotes the percentage by which the read-out fell short of the control.

The first assay deals with T1, endothelin receptor (membrane of smooth muscle tissue of porcine aorta) (Sus scrofa, UniProt Q29010).
T1 construct: from tissue; host or cells: porcine aorta smooth muscle, membrane fraction
T1 sequence (Q29010 21-427): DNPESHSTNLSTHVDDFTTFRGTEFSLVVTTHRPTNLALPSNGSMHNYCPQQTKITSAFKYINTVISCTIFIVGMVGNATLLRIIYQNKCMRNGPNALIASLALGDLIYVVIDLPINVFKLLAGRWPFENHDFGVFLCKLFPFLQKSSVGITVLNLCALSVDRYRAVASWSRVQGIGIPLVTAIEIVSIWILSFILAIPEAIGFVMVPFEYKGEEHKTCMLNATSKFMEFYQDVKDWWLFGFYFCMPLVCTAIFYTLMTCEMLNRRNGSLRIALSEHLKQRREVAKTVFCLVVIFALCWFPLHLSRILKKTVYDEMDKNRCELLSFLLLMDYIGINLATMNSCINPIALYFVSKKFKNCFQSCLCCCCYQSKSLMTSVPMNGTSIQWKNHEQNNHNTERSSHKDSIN
Kind of assay: Endothelin binding inhibition test (125I-endothelin-1, porcine aorta smooth muscle membrane). The conditions noted are these: 1.1 μM test compound (no mark); read-out: 125I-endothelin-1 binding inhibition. The protocol:
The smooth muscle tissue of porcine aorta was homogenized in a buffer solution of 10 mM MOPS, pH 7.4, at 4° C. by a polytron. To the homogenate, sucrose was added to a concentration of 20%, and the mixture was centrifuged at 1,000×g for 15 minutes, and the supernatant was further centrifuged at 10,000×g for 15 minutes. The supernatant thereof was further centrifuged at 90,000×g for 40 minutes. The membrane precipitate thereby obtained was suspended in a buffer solution of 5 mM HEPES/Tris, pH 7.4, at a concentration of 25 mg/ml.
Then, 16 μl of this membrane suspension was added to 340 μl of 50 mM Tris/HCl buffer, pH 7.4, containing 10 μM calcium chloride, 10 μM magnesium chloride, 0.1 mM PMSF, 1 μM pepstatin A, 2 μM leupeptin, 1 mM 1,10-phenanthroline and 0.1% bovine serum albumin. To this suspension, 4 μl of (A) endothelin-1 (for nonspecific binding; 0.2 μM as the final concentration), (B) buffer solution A (for total control binding), or (C) a test compound (1.1 μM or 10 μM as the final concentration),was added. Further, to each suspension, 40 μl of ^125 I-endothelin-1 (12000-18000 cpm) was added. These mixtures were incubated at 25° C. for 4 hours, then subjected to filtration on a glass filter GF/C and then washed with 5 mM HEPES/Tris, pH 7.4, containing 0.3% bovine serum albumin. Then, the radioactivity trapped by the glass filter was measured, and the ^125 I-endothelin-1 binding inhibition D (%) at 1.1 μM or 10 μM of the test compound was determined by the following equation. [formula] Each test was performed in triplicate.
The test compounds are indicated by Compound Nos.
For the compound `CC(C)C[C@@H](C(=O)N[C@H](Cc1c[nH]c2ccccc12)C(=O)N[C@H](Cc1c[nH]c2ccccc12)C(=O)O)N1C(=O)CN(C2CCCC2)C1=O` [Compound 155], the inhibition at 1.1 µM is 70%. In the case of `CC(C)C[C@H](NC(=O)N1CCCCCC1)C(=O)N[C@H](Cc1cn(C=O)c2ccccc12)C(=O)N[C@H](Cc1c[nH]cn1)C(=O)O` [Compound 156], the inhibition at 1.1 µM came out at 86%. For `CC(C)C[C@H](NC(=O)N1CCCCCC1)C(=O)N[C@H](Cc1c[nH]c2ccccc12)C(=O)NCCC(=O)NS(C)(=O)=O` [Compound 158], the inhibition at 1.1 µM was determined as 57%. As for `CC(C)C[C@H](NC(=O)N1CCCCCC1)C(=O)N[C@H](Cc1c[nH]c2ccccc12)C(=O)N[C@H](C)CS(=O)(=O)O` [Compound 160], the inhibition at 1.1 µM turned out to be 86%. On the same count and under the same terms, under `CC(C)C[C@H](NC(=O)N1CCCCCC1)C(=O)N[C@H](Cc1cn(C=O)c2ccccc12)C(=O)NCCS(=O)(=O)O` [Compound 161] stands 84%; under `CC(C)C[C@H](NC(=O)N1CCCCCC1)C(=O)N[C@H](Cc1cn(C=O)c2ccccc12)C(=O)N[C@H](C)CS(=O)(=O)O` [Compound 162], 86%; under `CC(C)C[C@H](NC(=O)N1CCCCCC1)C(=O)N[C@H](Cc1c[nH]c2ccccc12)C(=O)NN1CCC[C@@H]1C(=O)O` [Compound 163], 76%. In the case of `CC(C)C[C@H](NC(=O)N1CCCCCC1)C(=O)N[C@H](Cc1c[nH]c2ccccc12)C(=O)NN1CCC[C@H]1C(=O)O` [Compound 164], the inhibition at 1.1 µM stood at 71%. Same read-out and setting: under `CC(C)C[C@H](NC(=O)N(CC(C)C)C1CCCC1)C(=O)N[C@H](Cc1c[nH]c2ccccc12)C(=O)N[C@H](Cc1c[nH]c2ccccc12)C(=O)O` [Compound 172] stands 87%. On the same count and under the same terms, under `CC(C)C[C@H](NC(=O)N1CCCC1(C)C)C(=O)N[C@H](Cc1c[nH]c2ccccc12)C(=O)N[C@H](Cc1c[nH]c2ccccc12)C(=O)O` [Compound 173] stands 84%; under `CC(C)C[C@H](NC(=O)N(C)C(C)(C)C)C(=O)N[C@H](Cc1cn(C=O)c2ccccc12)C(=O)N[C@H](Cc1c[nH]c2ccccc12)C(=O)O` [Compound 174], 81%; under `CC(C)C[C@H](NC(=O)C1CCCCCC1)C(=O)N[C@H](Cc1c[nH]c2ccccc12)C(=O)N[C@H](Cc1c[nH]c2ccccc12)C(=O)O` [Compound 200], 87%.

Staying with this assay, now noted: 10 μM test compound (marked *); read-out: 125I-endothelin-1 binding inhibition.
Take `CC(C)C[C@H](NC(=O)OC(C)(C)C)C(=O)N[C@H](Cc1c[nH]c2ccccc12)C(=O)NN(CC(=O)O)CC(=O)O` [Compound 147]: the inhibition at 10 µM came out at 57%.

Consider `CC(C)C[C@H](NC(=O)OC(C)(C)C)C(=O)N[C@H](Cc1c[nH]c2ccccc12)C(=O)NNCC(=O)O` [Compound 148], for which the inhibition at 10 µM was determined as 82%.

`CC(C)C[C@H](NC(=O)OC(C)(C)C)C(=O)N[C@H](Cc1c[nH]c2ccccc12)C(=O)NN(CC(=O)O)Cc1ccccc1` [Compound 149]: the inhibition at 10 µM was found to be 58%. The same measure, in the same setting: with `CC(C)C[C@H](NC(=O)NN1CCCC1)C(=O)N[C@H](Cc1c[nH]c2ccccc12)C(=O)NCCC(=O)O` [Compound 152] the figure was 58%.

Staying with this assay, now noted: read-out: 125I-endothelin-1 binding inhibition.
Take `CC(C)C[C@H](NC(=O)N1CCCCCC1)C(=O)N[C@H](Cc1c[nH]c2ccccc12)C(=O)NCCC(=O)NS(=O)(=O)c1ccccc1` [Compound 157]: the inhibition at 1.1 µM came to 69%. As for `COP(=O)(OC)n1cc(C[C@@H](NC(=O)[C@H](CC(C)C)NC(=O)N2CCCCCC2)C(=O)N[C@H](Cc2c[nH]c3ccccc23)C(=O)O)c2ccccc21` [Compound 191], the inhibition at 10 µM came to 74%.

For `CC(C)C[C@H](OC(=O)C1CCCCCC1)C(=O)N[C@H](Cc1c[nH]c2ccccc12)C(=O)N[C@H](Cc1c[nH]c2ccccc12)C(=O)O` [Compound 201], the inhibition at 1.1 µM was found to be 69%.
